Results from US20190022041A1, “OIL PALM PHENOLICS COMPOSITION FOR THE PROTECTION OF HUMANS, ORGANS, CELLS AND TISSUES AGAINST THE INJURIOUS EFFECTS OF EXPOSURE TO IONIZING RADIATION” (Malaysian Palm Oil Board, priority 2015, published 2019).

System: HT-29 cells
Test: number of colonies of HT-29 cells after gamma ionizing radiation
Assay type: cell-based
Details: FIG. 3
Source text: For instance, lipid peroxidation levels of HT-29 by TBAR assay is protected by OPP against 800 and 1600 rads HT-29, as illustrated in graph of FIG. 2. […] Out of the three preparations, number of colonies of HT-29 is highest in case of de-phenolics.

O=C(O)C1=C[C@@H](O)[C@@H](O)[C@H](O)C1 [shikimic acid]
number of colonies: abruptly increases
